Legend:
Type in all cases: cell-based
[1] = system: K-562 (human leukaemia); test: antiproliferative assay, K-562
[2] = system: MCF-7 cells (breast cancer); test: in vitro cytotoxic assay, MCF-7
[3] = system: PC-3 cells (prostate cancer); test: in vitro cytotoxic assay, PC-3
[4] = system: HeLa (human cervix carcinoma); test: cytotoxicity assay, HeLa
[5] = system: L-929 (mouse fibroblasts); test: antiproliferative assay, L-929

For CCC(=O)O[C@H]1[C@H](C)O[C@@H](O[C@H]2[C@H](N(C)C)[C@@H](O)[C@H](O[C@H]3[C@@H](CC=O)C[C@@H](C)[C@@H](O)/C=C/C=C/C[C@@H](C)OC(=O)C[C@@H](O)[C@@H]3OC)O[C@@H]2C)C[C@@]1(C)O [compound 1, leucomycin A7], the “antiproliferative activity in K-562 (in words)” value [1] was “not active at all”, the GI50 ([1]; read-out: K-562 GI50, antiproliferative activity, K-562 human leukaemia) was over 66 µM and the “cytotoxic activity in MCF-7 (in words)” value [2] was “not active at all”. For the same compound, the “cytotoxic activity in PC-3 (in words)” value [3] was “not active at all”, the “cytotoxic activity in HeLa (in words)” value [4] was “not active at all” and the CC50 ([4]; read-out: HeLa CC50, cytotoxicity, HeLa human cervix carcinoma) was over 66 µM. The “antiproliferative activity in L-929 (in words)” value [5] was “not active at all” and the GI50 ([5]; read-out: L-929 GI50, antiproliferative activity, L-929 mouse fibroblasts) was over 66 µM.

— paper PMC4058769 (Organic & biomolecular chemistry, 2009)
